Experimental data from PMC12631985 (Environmental Science & Technology, 2025).

How the values were obtained:
[1] = tested on: AR mRNA; experiment: Quantitative RT-PCR for DHT-induced AR mRNA expression in 22Rv1/MMTV-GRKO cells; type: cell-based, human; conditions: with DHT; highest noncytotoxic concentration (≥80% viability); n = 3
[2] = tested on: zebrafish; conditions: previous research; ref number not printed at the place; cited from earlier work
[3] = tested on: AR protein expression; experiment: Western blot for DHT-induced AR protein expression; conditions: highest noncytotoxic concentration (≥80% viability), n = 3

SMILES | reduction in AR mRNA levels compared to the DHT-only treatment group [1] [%] | toxicity in zebrafish [2] | suppression level of DHT-induced AR protein expression compared with the DHT-only treatment group [3] [%]
Fc1ccc([C@]2(Cn3cncn3)O[C@H]2c2ccccc2Cl)cc1 (racemic) [epoxiconazole] | 59.0 | – | –
N#CC(CCc1ccc(Cl)cc1)(Cn1cncn1)c1ccccc1 (centres unmarked) [fenbuconazole] | 45.0 | significantly impaired mitochondrial function and locomotor activity | 24.6
C[Si](Cn1cncn1)(c1ccc(F)cc1)c1ccc(F)cc1 [flusilazole] | 60.4 | – | –
CC1(C)CCC(Cc2ccc(Cl)cc2)C1(O)Cn1cncn1 (centres unmarked) [metconazole] | 27.8 | – | –
CC(C)(C)C(O)(CCc1ccc(Cl)cc1)Cn1cncn1 (centres unmarked) [tebuconazole] | 37.5 | – | –
CCCOC/C(=N\c1ccc(Cl)cc1C(F)(F)F)n1ccnc1 [triflumizole] | 26.5 | – | –
